# Values of other authors, collected in US20220087839A1, “Arterial Drug Eluting Device to Treat Diabetes With Targeted Delivery of Medication” (Becton, Dickinson and Company, priority 2020, published 2022).
# How the values were obtained:
# glucagon [1] = conditions: intravenous infusion of 25 micrograms per hour, Type 1 diabetic
# human alpha-cells = conditions: in vitro
# glucagon [2] = conditions: intravenous infusion of 500 micrograms per hour, Type 1 diabetics
# [3] = in vivo
# [4] = tested on: beta and alpha cells of the pancreas
molecule,measurement,setting,value
CC[C@H](C)[C@H](NC(=O)[C@@H]1CCCN1C(=O)CNC(=O)[C@H](Cc1ccccc1)NC(=O)[C@H](CC(N)=O)NC(=O)[C@H](CC(N)=O)NC(=O)[C@H](CO)NC(=O)[C@H](CO)NC(=O)[C@H](Cc1c[nH]cn1)NC(=O)[C@@H](NC(=O)[C@H](CC(C)C)NC(=O)[C@H](Cc1ccccc1)NC(=O)[C@H](CC(N)=O)NC(=O)[C@H](C)NC(=O)[C@H](CC(C)C)NC(=O)[C@H](CCCNC(=N)N)NC(=O)[C@H](CCC(N)=O)NC(=O)[C@@H](NC(=O)[C@H](C)NC(=O)[C@@H]1CSSC[C@H](NC(=O)[C@@H](N)CCCCN)C(=O)N[C@@H](CC(N)=O)C(=O)N[C@@H]([C@@H](C)O)C(=O)N[C@@H](C)C(=O)N[C@@H]([C@@H](C)O)C(=O)N1)[C@@H](C)O)C(C)C)C(=O)N[C@@H](CC(C)C)C(=O)N1CCC[C@H]1C(=O)N1CCC[C@H]1C(=O)N[C@H](C(=O)N[C@@H](CC(N)=O)C(=O)N[C@H](C(=O)NCC(=O)N[C@@H](CO)C(=O)N[C@@H](CC(N)=O)C(=O)N[C@H](C(=O)N[C@@H](Cc1ccc(O)cc1)C(N)=O)[C@@H](C)O)C(C)C)[C@@H](C)O [Pramlintide],suppression of glucagon spike from a standardized meal,glucagon [1],could suppress a glucagon spike from a standardized meal
leptin,concentration that could suppress functional response to glucose,human alpha-cells,0.625 nmol/L
somatostatin,suppression of glucagon spikes,glucagon [2],suppressed glucagon spikes
same,half life,[3],3 min
same,effect on insulin and glucagon release,[4],inhibit both insulin and glucagon release
